Test results: article PMC2397535 (Breast Cancer Research : BCR, 2008)
Like-named read-outs stand apart in the source and are kept apart here. Marks after values point to notes of the source that are not given here.

What was measured:
[1] = tested on: SkBr3; assay: antiproliferative effect (GI50), breast cancer cell line; type: cell-based; conditions: Homo sapiens, SK-BR-3
[2] = tolerability (body weight, survival) in BT-474 tumor-bearing nude mice; type: in vivo
Procedure: (§1) Invasive procedures were performed under Forene anesthesia. […] The animals were fed food and water ad libitum.
(§2) Tumor growth and body weights were monitored at regular intervals. The xenograft tumor sizes were measured manually with calipers, and the tumor volume was estimated using the formula (w × l × h × π/6), where width (w), height (h), and length (l) are the three largest diameters.
(§3) When applicable, results are presented as mean ± standard error of the mean. Tumor and body weight data were analyzed by analysis of variance (ANOVA) with the post hoc Dunnett test for comparison of treatment versus control groups. The post hoc Tukey test was used for intragroup comparison. Statistical analysis was performed using GraphPad Prism 5 (GraphPad Software, Inc., San Diego, CA, USA). As a measure of efficacy, the %T/C value is calculated at the end of the experiment according to (Δtumor volumetreated/Δtumor volumecontrol) × 100, where Δtumor volumes represent the mean tumor volume on the evaluation day minus the mean tumor volume at the start of the experiment.

[3] = tested on: MCF-7; assay: antiproliferative effect (GI50), breast cancer cell line; type: cell-based; conditions: Homo sapiens, MCF7
[4] = tested on: MAXF 583; assay: clonogenic (soft agar colony formation) assay, primary breast tumor; type: cell-based, human
[5] = tested on: panel of human breast cancer cell lines; assay: antiproliferative effect, panel of seven breast cancer cell lines (summary values); type: cell-based
[6] = tested on: BT-474 breast cancer xenograft; assay: antitumor effect in BT-474 breast cancer xenograft model; type: in vivo, mice; conditions: for T/C / Tumor volume change: day 20
Procedure: as §1, §2, §3

[7] = tested on: human breast cancer explants; assay: clonogenic assay, six human breast cancer explants (summary values); type: cell-based
[8] = tested on: MDA-MB-231; assay: antiproliferative effect (GI50), breast cancer cell line; type: cell-based; conditions: Homo sapiens
[9] = tested on: BT-474; assay: as above; type: cell-based; conditions: Homo sapiens
[10] = tested on: MDA-MB-157; assay: as above; type: cell-based; conditions: Homo sapiens
[11] = tested on: BT20; assay: as above; type: cell-based; conditions: Homo sapiens, BT-20
[12] = tested on: MAXF 1322; assay: clonogenic (soft agar colony formation) assay, primary breast tumor; type: cell-based, human
[13] = tested on: ERBB2, AKT, phospho-AKT in BT-474 cells; assay: client protein levels in BT-474 cells (Western blot); type: cell-based, human
Procedure: To assess total levels of AKT, phosphorylated AKT, β-tubulin, and ERBB2 in the cell extracts, 20 to 30 μg of total protein was resolved by the appropriate-percentage SDS-PAGE. The following antibodies were used for immunoblotting: anti-AKT (cat. no. 9272, rabbit polyclonal; Cell Signaling Technology, Inc.), anti-phospho-AKT (Ser473) (cat. no. 9271, rabbit polyclonal; Cell Signaling Technology, Inc.), anti-β-tubulin (cat. no. T 4026, mouse monoclonal, clone Tub2.1; Sigma-Aldrich, St. Louis, MO, USA), and anti-ERBB2 (cat. no. 28-0004, rabbit polyclonal; Zymed Laboratories Inc., now part of Invitrogen Corporation, Carlsbad, CA, USA). Bound antibodies on PVDF immunoblots were detected by Amersham ECL (Amersham, now part of GE Healthcare, Little Chalfont, Buckinghamshire, UK) or infrared fluorescence detection (LI-COR Biosciences, Lincoln, NE, USA).

CCNC(=O)c1noc(-c2cc(C(C)C)c(O)cc2O)c1-c1ccc(CN2CCOCC2)cc1 [NVP-AUY922]
GI50 [1]: 0.0033 ± 0.0009 µM | body weights compared with vehicle ([2]; single i.v. administration, 17 or 25 mg/kg): did not affect body weights | body weight ([2]; three times per week i.v., all dose levels (10, 30, 50 mg/kg)): significant body weight loss | GI50 [3]: 0.0088 ± 0.0018 µM | IC70 (colony formation) [4]: 0.569 µM | IC50 ([4]; Homo sapiens): 0.333 µM | GI50 ([5]; seven cell lines, read-out: GI50 values, range over human breast cancer cell lines): 0.003 to 0.126 µM | GI50 ([5]; six of the seven breast cancer cell lines, read-out: average GI50 value): 0.0054 µM | T/C ([6]; 8.3 mg/kg once per week): 95 percentage | Tumor volume change ([6]; 8.3 mg/kg once per week): 252 ± 73 cubic millimeters | T/C ([6]; 17 mg/kg once per week): 72 percentage | Tumor volume change ([6]; 17 mg/kg once per week): 191 ± 61 cubic millimeters | T/C ([6]; 25 mg/kg once per week): 12 percentage | Tumor volume change ([6]; 25 mg/kg once per week): 32 ± 15^a cubic millimeters | T/C ([6]; 41 mg/kg once per week): 3 percentage | Tumor volume change ([6]; 41 mg/kg once per week): 9 ± 13^a cubic millimeters | T/C ([6]; 58 mg/kg once per week): 8 percentage | Tumor volume change ([6]; 58 mg/kg once per week): 22 ± 26^a cubic millimeters | tumor response ([6]; once per week i.v., 8.3 to 17 mg/kg): did not result in a significant effect on tumor growth | tumor response ([6]; once per week i.v., 25 to 58 mg/kg): highly efficacious | tumor growth ([6]; single i.v. dose 17 mg/kg): indication of retarded tumor growth | time without significant tumor growth after administration ([6]; single i.v. dose 25 mg/kg): about 1 week | tumor size at end corresponds to control tumor size this much earlier ([6]; single i.v. dose 25 mg/kg): approximately 10 days | tumor size versus control group at the end of the experiment ([6]; single i.v. dose 25 mg/kg, 21 days, P < 0.05): statistically significantly smaller | tumor response ([6]; three times per week i.v., 10 mg/kg): did not result in a significant effect on tumor growth | tumor response ([6]; three times per week i.v., 30 and 50 mg/kg): tumor regression | GI50 ([7]; Homo sapiens, one highly resistant tumor explant, highest concentration evaluated, read-out: GI50): > 10 µM | average GI70 ([7]; five out of the six human breast cancer explants): 0.379 µM | GI50 ([7]; five out of the six human breast cancer explants, read-out: average GI50): 0.191 µM | GI50 [8]: 0.007 ± 0.0017 µM | GI50 [9]: 0.0031 ± 0.0014 µM | GI50 [10]: 0.126 ± 0.037 µM | GI50 [11]: 0.004 ± 0.0014 µM | IC70 (colony formation) [12]: 0.048 µM | IC50 ([12]; Homo sapiens): 0.029 µM | concentration required for significant reduction of protein AKT levels [13]: around 1 μM | phospho-AKT levels ([13]; 50 nM): decrease in the levels of phospho-AKT | total ERBB2 levels ([13]; 50 nM): decrease in total ERBB2 levels
